The record followed here is BindingDB's records for doi:10.1016/j.bioorg.2014.03.008 (University of Ljubljana, 2014).

Assay [1] concerns the target T1, UDP-N-acetylmuramoyl-L-alanyl-D-glutamate--2,6-diaminopimelate ligase (Mycobacterium tuberculosis (strain ATCC 25618 / H37Rv), UniProt P9WJL3).
T1 sequence (P9WJL3 whole entry): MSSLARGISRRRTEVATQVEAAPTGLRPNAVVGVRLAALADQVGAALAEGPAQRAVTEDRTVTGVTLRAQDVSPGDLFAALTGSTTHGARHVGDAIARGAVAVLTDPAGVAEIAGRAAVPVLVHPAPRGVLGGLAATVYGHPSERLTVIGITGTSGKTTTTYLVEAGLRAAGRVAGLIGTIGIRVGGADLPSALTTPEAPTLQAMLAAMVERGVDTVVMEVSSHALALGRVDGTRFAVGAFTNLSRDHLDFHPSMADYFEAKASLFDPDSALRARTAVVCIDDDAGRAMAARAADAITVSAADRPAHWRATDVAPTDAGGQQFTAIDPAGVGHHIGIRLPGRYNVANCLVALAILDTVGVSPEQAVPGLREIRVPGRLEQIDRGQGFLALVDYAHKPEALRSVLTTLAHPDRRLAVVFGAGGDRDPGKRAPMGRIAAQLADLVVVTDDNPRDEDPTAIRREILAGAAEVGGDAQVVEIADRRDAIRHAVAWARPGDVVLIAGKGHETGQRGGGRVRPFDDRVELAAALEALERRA

The target of assay [2] is T2, UDP-N-acetylglucosamine 1-carboxyvinyltransferase (Enterobacter cloacae subsp. cloacae (strain ATCC 13047 / DSM 30054 / NBRC 13535 / NCTC 10005 / WDCM 00083 / NCDC 279-56), UniProt P33038).
T2 sequence (P33038 whole entry): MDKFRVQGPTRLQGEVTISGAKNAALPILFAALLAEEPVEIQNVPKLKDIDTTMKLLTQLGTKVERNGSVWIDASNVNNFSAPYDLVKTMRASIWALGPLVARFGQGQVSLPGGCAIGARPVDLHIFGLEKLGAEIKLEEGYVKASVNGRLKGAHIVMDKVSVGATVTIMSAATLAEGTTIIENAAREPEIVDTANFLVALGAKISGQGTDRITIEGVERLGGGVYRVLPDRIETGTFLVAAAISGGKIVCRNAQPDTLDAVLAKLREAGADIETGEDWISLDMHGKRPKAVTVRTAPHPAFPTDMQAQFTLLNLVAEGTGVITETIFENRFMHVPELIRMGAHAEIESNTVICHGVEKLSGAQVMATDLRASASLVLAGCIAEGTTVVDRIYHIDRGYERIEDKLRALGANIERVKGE
Assay [3] has as its target UDP-N-acetylglucosamine 1-carboxyvinyltransferase (Escherichia coli (strain K12), UniProt P0A749).
For assay [4], the target named is T3, UDP-N-acetylglucosamine 1-carboxyvinyltransferase 2 (Staphylococcus aureus (strain Mu50 / ATCC 700699), UniProt P65456).
T3 sequence (P65456 whole entry): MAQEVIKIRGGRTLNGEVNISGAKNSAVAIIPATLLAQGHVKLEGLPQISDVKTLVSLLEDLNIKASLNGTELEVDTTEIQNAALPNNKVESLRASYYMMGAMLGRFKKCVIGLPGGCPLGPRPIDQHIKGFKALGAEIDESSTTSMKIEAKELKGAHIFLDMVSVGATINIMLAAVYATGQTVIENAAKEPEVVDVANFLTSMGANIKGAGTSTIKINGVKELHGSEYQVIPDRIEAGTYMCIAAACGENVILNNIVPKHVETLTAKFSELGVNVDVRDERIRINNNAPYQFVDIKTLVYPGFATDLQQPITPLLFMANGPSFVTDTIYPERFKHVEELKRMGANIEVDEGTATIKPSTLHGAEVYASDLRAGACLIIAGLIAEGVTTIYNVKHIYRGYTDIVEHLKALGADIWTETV

The target of assay [5] is T4, UDP-N-acetylmuramoyl-tripeptide--D-alanyl-D-alanine ligase (Escherichia coli (strain K12), UniProt P11880).
T4 sequence (P11880 whole entry): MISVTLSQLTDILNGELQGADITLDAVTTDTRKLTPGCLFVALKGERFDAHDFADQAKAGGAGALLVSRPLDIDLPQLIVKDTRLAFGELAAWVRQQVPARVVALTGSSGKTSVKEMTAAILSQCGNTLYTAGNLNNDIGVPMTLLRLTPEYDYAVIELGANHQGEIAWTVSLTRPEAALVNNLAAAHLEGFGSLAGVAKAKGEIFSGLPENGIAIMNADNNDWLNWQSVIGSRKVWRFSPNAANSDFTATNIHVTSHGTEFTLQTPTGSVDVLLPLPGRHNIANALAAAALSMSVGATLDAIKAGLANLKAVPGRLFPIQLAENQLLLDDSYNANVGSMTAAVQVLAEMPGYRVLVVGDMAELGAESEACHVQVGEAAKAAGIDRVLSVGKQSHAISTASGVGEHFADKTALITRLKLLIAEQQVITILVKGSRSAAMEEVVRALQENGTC

Assay [6] deals with T5, UDP-N-acetylmuramoyl-tripeptide--D-alanyl-D-alanine ligase (Streptococcus pneumoniae (strain ATCC BAA-255 / R6), UniProt Q8DNV6).
T5 sequence (Q8DNV6 whole entry): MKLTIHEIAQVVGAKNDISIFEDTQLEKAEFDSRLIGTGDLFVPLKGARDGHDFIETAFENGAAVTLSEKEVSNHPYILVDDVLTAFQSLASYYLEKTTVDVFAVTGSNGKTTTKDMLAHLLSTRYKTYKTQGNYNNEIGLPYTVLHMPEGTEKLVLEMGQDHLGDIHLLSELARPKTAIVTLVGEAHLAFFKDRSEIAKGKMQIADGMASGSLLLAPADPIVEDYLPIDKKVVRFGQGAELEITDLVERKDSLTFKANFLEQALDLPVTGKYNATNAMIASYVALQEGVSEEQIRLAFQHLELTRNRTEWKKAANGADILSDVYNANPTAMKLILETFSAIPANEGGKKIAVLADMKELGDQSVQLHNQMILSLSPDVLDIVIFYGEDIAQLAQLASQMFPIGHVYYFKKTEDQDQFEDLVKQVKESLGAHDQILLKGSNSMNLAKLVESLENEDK

Assay [7] has as its target UDP-N-acetylmuramoyl-tripeptide--D-alanyl-D-alanine ligase (Staphylococcus aureus (strain COL), UniProt A0A0H2WWP1).
Assay [8] concerns the target UDP-N-acetylmuramate--L-alanine ligase (Escherichia coli (strain K12), UniProt P17952).
Assay [9] has as its target UDP-N-acetylmuramate--L-alanine ligase (Proteus mirabilis (strain HI4320), UniProt B4F110).
Assay [10] deals with UDP-N-acetylmuramate--L-alanine ligase [A299V,V378L,T444A] (Klebsiella pneumoniae, UniProt A6T4N4, A299V/T444A/V378L).
Sequence of UDP-N-acetylmuramate--L-alanine ligase [A299V,V378L,T444A] (A6T4N4 whole entry A299V/V378L/T444A): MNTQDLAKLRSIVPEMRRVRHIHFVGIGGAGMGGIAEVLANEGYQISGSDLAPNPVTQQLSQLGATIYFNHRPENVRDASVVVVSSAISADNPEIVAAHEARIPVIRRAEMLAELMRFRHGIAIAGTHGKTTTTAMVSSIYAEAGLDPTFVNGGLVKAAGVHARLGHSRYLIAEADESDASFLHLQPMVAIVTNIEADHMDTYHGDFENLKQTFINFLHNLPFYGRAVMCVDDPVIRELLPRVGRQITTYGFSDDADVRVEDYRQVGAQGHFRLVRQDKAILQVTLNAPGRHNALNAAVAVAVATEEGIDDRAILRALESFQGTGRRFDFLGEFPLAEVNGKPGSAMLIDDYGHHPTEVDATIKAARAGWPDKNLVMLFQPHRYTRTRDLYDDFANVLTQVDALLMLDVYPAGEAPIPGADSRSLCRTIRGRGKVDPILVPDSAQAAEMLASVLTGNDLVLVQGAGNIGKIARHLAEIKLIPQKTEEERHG
In assay [11] the target is T2, UDP-N-acetylglucosamine 1-carboxyvinyltransferase. The source holds these as a separate data set.

Sequence of UDP-N-acetylmuramate--L-alanine ligase (Escherichia coli (strain K12), UniProt P17952) (P17952 whole entry): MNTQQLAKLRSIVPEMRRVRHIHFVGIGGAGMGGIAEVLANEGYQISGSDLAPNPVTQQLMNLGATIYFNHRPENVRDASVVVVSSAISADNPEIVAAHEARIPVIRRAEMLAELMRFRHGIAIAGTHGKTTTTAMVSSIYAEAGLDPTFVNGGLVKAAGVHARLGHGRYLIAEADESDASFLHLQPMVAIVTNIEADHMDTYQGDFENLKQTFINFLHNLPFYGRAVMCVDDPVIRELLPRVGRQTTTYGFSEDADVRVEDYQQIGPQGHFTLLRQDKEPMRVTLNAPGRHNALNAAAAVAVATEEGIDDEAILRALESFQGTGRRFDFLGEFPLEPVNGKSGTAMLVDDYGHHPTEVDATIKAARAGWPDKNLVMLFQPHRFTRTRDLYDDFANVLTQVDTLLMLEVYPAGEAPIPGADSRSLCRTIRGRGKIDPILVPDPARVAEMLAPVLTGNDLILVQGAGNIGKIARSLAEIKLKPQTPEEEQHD
Sequence of UDP-N-acetylmuramoyl-tripeptide--D-alanyl-D-alanine ligase (Staphylococcus aureus (strain COL), UniProt A0A0H2WWP1) (A0A0H2WWP1 whole entry): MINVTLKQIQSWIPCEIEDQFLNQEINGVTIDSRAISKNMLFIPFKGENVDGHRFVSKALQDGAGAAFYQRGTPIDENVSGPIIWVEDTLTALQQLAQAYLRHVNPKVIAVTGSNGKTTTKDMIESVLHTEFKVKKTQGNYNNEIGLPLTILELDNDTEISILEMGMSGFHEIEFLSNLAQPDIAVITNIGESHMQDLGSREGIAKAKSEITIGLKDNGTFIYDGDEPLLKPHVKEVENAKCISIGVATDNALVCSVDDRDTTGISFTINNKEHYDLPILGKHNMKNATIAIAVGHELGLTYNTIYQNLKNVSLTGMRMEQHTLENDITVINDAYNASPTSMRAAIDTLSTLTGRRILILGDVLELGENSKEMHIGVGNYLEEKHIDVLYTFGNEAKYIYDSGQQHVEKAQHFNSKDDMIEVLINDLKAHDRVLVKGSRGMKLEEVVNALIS
Sequence of UDP-N-acetylmuramate--L-alanine ligase (Proteus mirabilis (strain HI4320), UniProt B4F110) (B4F110 whole entry): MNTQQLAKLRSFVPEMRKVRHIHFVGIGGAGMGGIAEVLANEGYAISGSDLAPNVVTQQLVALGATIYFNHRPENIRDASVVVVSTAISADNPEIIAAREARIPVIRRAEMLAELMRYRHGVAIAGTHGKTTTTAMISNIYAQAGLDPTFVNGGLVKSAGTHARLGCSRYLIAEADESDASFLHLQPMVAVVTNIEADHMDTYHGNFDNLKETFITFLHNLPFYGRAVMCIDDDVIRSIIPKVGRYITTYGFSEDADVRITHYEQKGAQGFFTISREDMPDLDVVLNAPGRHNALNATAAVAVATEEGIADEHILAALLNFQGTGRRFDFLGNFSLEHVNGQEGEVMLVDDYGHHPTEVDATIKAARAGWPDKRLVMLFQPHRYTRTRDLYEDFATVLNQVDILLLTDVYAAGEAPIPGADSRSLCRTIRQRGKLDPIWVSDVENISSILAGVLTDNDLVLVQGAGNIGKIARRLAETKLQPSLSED
Sequence of UDP-N-acetylglucosamine 1-carboxyvinyltransferase (Escherichia coli (strain K12), UniProt P0A749) (P0A749 whole entry): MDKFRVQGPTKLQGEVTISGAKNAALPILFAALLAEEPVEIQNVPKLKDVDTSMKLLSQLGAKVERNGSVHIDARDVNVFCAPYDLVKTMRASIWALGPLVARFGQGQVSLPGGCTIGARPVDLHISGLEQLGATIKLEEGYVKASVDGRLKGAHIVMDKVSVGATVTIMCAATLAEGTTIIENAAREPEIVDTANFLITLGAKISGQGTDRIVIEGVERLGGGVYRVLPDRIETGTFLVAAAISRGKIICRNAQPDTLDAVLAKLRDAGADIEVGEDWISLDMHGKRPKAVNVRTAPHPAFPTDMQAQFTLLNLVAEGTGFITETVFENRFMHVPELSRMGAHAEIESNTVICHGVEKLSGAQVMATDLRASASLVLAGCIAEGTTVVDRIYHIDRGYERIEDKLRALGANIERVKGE

In the case of `C[C@]12Cc3cc4c(cc3-c3cccc(c31)CCN2)OCO4` [MurE inhibitor (compound 52)], the IC50 – broadly, the midpoint of a concentration-inhibition curve – in [1] is 67 µM.

Compound `CC(C)=CCC/C(C)=C\COc1cc(O)cc(O)c1C(=O)C(C)C` [MurE inhibitor (compound 53)] yielded a 50% inhibitory concentration (IC50) in [1] of 75 µM.

For the compound `CN(C(=O)C1CC(OS(=O)(=O)c2cccc3ccccc23)CCC1NS(=O)(=O)c1cccc2ccccc12)[C@@H](CCCC(=O)O)C(=O)O` (some centres not stated) [T6361 (compound 4)], in assay [2], the Ki – broadly, a measure of affinity in units of concentration, obtained from inhibition or displacement – came out at 16 µM.

Turning to `CC(C)[C@H](NC(=O)[C@H](NC(=O)[C@@H](NC(=O)[C@H](NC(=O)[C@@H](NC(=O)[C@H](NC(=O)[C@@H](NC(=O)[C@H](NC(=O)[C@H](N)c1ccc(O)cc1)c1cc(O)cc(O)c1)C(C)C)c1cc(O)cc(O)c1)c1ccc(O)cc1)c1cc(O)cc(O)c1)c1ccc(O)cc1)c1cc(O)cc(O)c1)C(=O)N[C@@H](C(=O)N[C@H](C(=O)N[C@@H](Cc1ccccc1)C(=O)N[C@@H](CC(=O)O)C(=O)O)c1ccc(O)cc1)c1cc(O)cc(O)c1` [Feglymicin (compound 30)], the Ki in [3] is 3.4 µM; in assay [4] it was 3.5 µM.

As to `N#CC1=C(NC(=O)c2cc(S(=O)(=O)N3CCOCC3)c(Cl)cc2Cl)SC2CN(Cc3cccc(O)c3)CCC12` (configuration not stated) [MurF inhibitor (compound 57)], the IC50 in assay [5] turned out to be 81 µM; in assay [6], 0.42 µM; in assay [7], 91 µM.

Take `CC(Oc1nc2ccccc2nc1N)c1ccccc1` (configuration not stated) [MurC inhibitor (compound 23)]: the IC50 stood at 30.2 µM in assay [8], 41.4 µM in assay [9] and 26.4 µM in assay [10].

With `Cc1c(O)c(O)c2c(c1O)O2` [Terreic acid (12)], in [11], the half-maximal inhibitory concentration (IC50) worked out at 14 µM. In other words, the double-digit micromolar range.
